# In patent US8278054B2, “Diagnosis of metal allergy through cytokine release by T-cells in vitro” (Mabtech AB, priority 2001, dated 2012):
# Where “and” joins values, the source holds several entries; their conditions need not be identical. Identical values can stand only once.
# Tests used:
# [1] = test system: ACD patients and control individuals; experiment: Epicutaneous patch test; format: in vivo, human; conditions: 48 h
# Protocol: Prior to the patch testing of the control group, blood samples for ELISpot analysis were taken to avoid an impact of the patch test on the ELISpot analysis. Epicutaneous patch tests using 5% NiSO4 in petrolatum was applied for 48 h whereafter the reaction, sites were inspected. […] All ACD patients were selected based on previous patch tests giving scores of 2+ or 3+ having 3+ as the highest score.
# Prior to the patch testing of the control group, blood samples for ELISpot analysis were taken to avoid an impact of the patch test on the ELISpot analysis. Epicutaneous patch tests were applied for 48 h whereafter the reaction sites were inspected. […] This patient also gave a negative result in the ELISpot assay (see Table 2).
# IL-5 producing PBMC = experiment: IL-5 ELISpot assay; format: cell-based, human; conditions: for IL-5 production in response to NiCl2 (ELISpot): 50 μM NiCl2, FIG. 1
# Text: (§1) Blood from ACD patients or control individuals were obtained by venipuncture and collected in sterile heparinised glass vials. Peripheral blood mononuclear cells (PBMC) were separated by density gradient centrifugation over Ficoll-Hypaque. After separation, PBMC were washed twice in medium (RPMI 1640 containing glutamin, Hepes, Penicillin/Streptomycin and 10% fetal calf serum (FCS)) and used fresh for experiments. Alternatively, PBMC were frozen in 90% FCS and 10% dimethylsulfoxide and kept in liquid nitrogen until tested. Prior to being tested, frozen cells were thawed at 37° C. and medium was added dropwise whereafter the cells were washed twice with medium.
# (§2) The PBMC were stimulated with various concentrations of NiCl2 and both proliferative responses and cytokine responses were analysed. NiCl2 at a stock concentration of 50 mM was mixed with medium and incubated for more than five minutes before being added to cells. PBMC diluted to a cell concentration of 4-6×10^6 cells/ml were mixed with an equal volume of NiCl2 diluted in medium resulting in a final concentration of 2×10^6 cells/ml and NiCl2 at concentrations ranging from 10-100 μM. The cell suspensions were incubated in plastic vials for 4 h at 37° C. in a humidified incubator. In parallel with incubating PBMC with NiCl2, PBMC at the same concentration were incubated with mitogen (1 μg phytohemagglutinin (PHA)/ml), control antigens (10 μg tetanus toxoid (TT) or purified protein derivative (PPD)/ml) or in the absence of stimuli.
# (§3) Matched pairs of monoclonal antibodies (mAb) to human IL-4, IL-5 or IL-13 were used for the ELISpot assays (Mabtech AB, Stockholm, Sweden). […]
# (§4) Ninetysix-well plates with polyvinylidene difluoride membranes (MAIPS45-10, Millipore) were treated with 100 μl of 70% EtOH for 2-10 min followed by six washes with 200 μl sterile deionized H2O. […] After rinsing the plates with tap water, the plates were dried and spots were counted using a light microscope. […]
# IFN-γ producing PBMC = experiment: IFN-γ ELISpot assay; format: cell-based, human; conditions: Kathon stimulation, spontaneous spots subtracted; allergic individuals, one line per patient
# Protocol: Peripheral blood mononuclear cells (PBMC) were obtained from Kathon (methylisothiazolinone) allergy patients or control individuals as described in Example 2.
# The PBMC were stimulated with Kathon (methylisothiazolinone) and cytokine responses were analysed.
# (§5) Matched pairs of monoclonal antibodies (mAb) to human IL-4, IL-5, IL-13 or IFN-γ were used for ELISpot assays (Mabtech AB, Stockholm, Sweden). As in Example 4 above, for each pair, one mAb was used as a capture mAb and the other for detection. MAbs used for detection were biotinylated.
# Ninetysix-well plates with polyvinylidene difluoride membranes (MAIPS45-10, Millipore) were treated with 100 μl of 70% EtOH for 2-10 min followed by six washes with 200 μl sterile deionized H2O. To each well, 100 μl of capture mAb at a concentration of 15 μg/ml in phosphate-buffered saline (PBS) was added and incubated over night at +4° C. The plates were washed three times with 200 μl or sterile PBS and three times with 200 μl medium containing 2% FCS. PBMC incubated for 4 h with or without stimuli in test tubes were suspended and 100 μl cell suspension (2×10^5 cells) was added to each well. After an additional incubation of 44 h, the wells were emptied and washed six times with 200 μl PBS. […] After rinsing the plates with tap water, the plates were dried and spots were counted using a light microscope.
# IL-4 producing PBMC = experiment: IL-4 ELISpot assay; format: cell-based, human; conditions: for IL-4 producing cells/200 000 PBMC after stimulation with 50 μM NiCl2 / IL-4 producing cells/200 000 PBMC, 50-0 / IL-4 producing cells/200 000 PBMC after stimulation with 100 μM NiCl2 / IL-4 producing cells/200 000 PBMC, 100-0: one line per subject; for IL-4 producing cells/200 000 PBMC, 50-0: 50 μM NiCl2 after subtraction of spontaneous spots; for IL-4 producing cells/200 000 PBMC, 100-0: 100 μM NiCl2 after subtraction of spontaneous spots
# Text: as §1, §2
# Matched pairs of monoclonal antibodies (mAb) to human IL-4, IL-5 or IL-13 were used for the ELISpot assays (Mabtech AB, Stockholm, Sweden). For each pair, one mAb was used as a capture mAb: 82.4 (IL-4), TRFK5 (IL-5) and IL13-I (IL-13) and the other for detection, 12.1 (IL-4), 5A10 (IL-5) and IL13-II (IL-13). MAbs used for detection were biotinylated.
# Ninetysix-well plates with polyvinylidene difluoride membranes (MAIPS45-10, Millipore) were treated with 100 μl of 70% EtOH for 2-10 min followed by six washes with 200 μl sterile deionized H2O. To each well, 100 μl of capture mAb at a concentration of 15 μg/ml in phosphate-buffered saline (PBS) was added and incubated over night at +4° C. The plates were washed three times with 200 μl or sterile PBS and three times with 200 μl medium containing 2% FCS. PBMC incubated for 4 h with or without stimuli in test tubes were suspended and 100 μl cell suspension (2×10^5 cells) was added to each well. After an additional incubation of 44 h, the wells were emptied and washed six times with 200 μl PBS. Biotinylated detection mAb at 1 μg/ml in PBS containing 0.5% FCS was added at a volume of 100 μl and incubated for 2 h at room temperature whereafter the wells were washed six times with PBS. Subsequently, 100 μl of SA-ALP (Streptavidin-Alkaline phosphatase, Mabtech) at 50 ng/ml in PBS with 0.5% FCS was added to each well and incubated for 1 h followed by washing in PBS six times before developing the wells with 100 μl nitroblue tetraxolium (NBT)/5-bromo-4-chloro-3-indolyl phosphate (BCIP) substrate (Sigma) for approximately 1 h. After rinsing the plates with tap water, the plates were dried and spots were counted using a light microscope.
# as §5
# Ninetysix-well plates with polyvinylidene difluoride membranes (MAIPS45-10, Millipore) were treated with 100 μl of 70% EtOH for 2-10 min followed by six washes with 200 μl sterile deionized H2O. To each well, 100 μl of capture mAb at a concentration of 15 μg/ml in phosphate-buffered saline (PBS) was added and incubated over night at +4° C. The plates were washed three times with 200 μl or sterile PBS and three times with 200 μl medium containing 2% FCS. […]
# IL-13 producing PBMC = experiment: IL-13 ELISpot assay; format: cell-based, human; conditions: for IL-13 production in response to NiCl2 (ELISpot): 50 μM NiCl2, FIG. 1
# Text: as §1, §2, §3, §4
# PBMC = experiment: Proliferative response of PBMC (stimulation index); format: cell-based, human; conditions: one line per subject
# Text: as §1
# as §2, with “In parallel with incubating PBMC with NiCl2, PBMC at the same concentration were incubated with mitogen (1 μg phytohemagglutinin (PHA)/ml), control antigens (10 μg tetanus toxoid (TT) or purified protein derivative (PPD)/ml) or in the absence of stimuli.” left out
# [2] = Kathon stimulation, spontaneous spots subtracted, allergic individuals, one line per patient
# [3] = PBMC from allergic individuals (n=8)
# [4] = PBMC from non-allergic individuals (n=7)
compound,measurement,setting,value
O=S(=O)([O-])[O-].[Ni+2] [NiSO4],Patch test reactivity,"[1]; 5% NiSO4 in petrolatum, non-allergic group, one line per subject",None of the controls responded positively
"Cn1sccc1=O [Kathon, methylisothiazolinone]",Patch test response,"[1]; Kathon (methylisothiazolinone), non-allergic controls",None of the controls responded positively
same,"Number of responding cells (spots) per 200,000 cells, IL-5",IL-5 producing PBMC; [2],"3 spots per 200,000 cells and 5 spots per 200,000 cells and 0 spots per 200,000 cells and 2 spots per 200,000 cells"
same,"Number of responding cells (spots) per 200,000 cells, IFN-gamma",IFN-γ producing PBMC,"39 spots per 200,000 cells and 113 spots per 200,000 cells and 0 spots per 200,000 cells and 21 spots per 200,000 cells"
same,"Number of responding cells (spots) per 200,000 cells, IL-4",IL-4 producing PBMC; [2],"14 spots per 200,000 cells and 21 spots per 200,000 cells and 0 spots per 200,000 cells and 3 spots per 200,000 cells"
same,"Number of responding cells (spots) per 200,000 cells, IL-13",IL-13 producing PBMC; [2],"51 spots per 200,000 cells and 50 spots per 200,000 cells and 0 spots per 200,000 cells and 19 spots per 200,000 cells"
[Cl][Ni][Cl] [NiCl2],Proliferation (SI) (50 μM NiCl2),PBMC; PBMC of allergic group,higher in the group of allergic individuals and 15.9 and 8.4 and 15.4 and 16.2 and 11.8 and 24.9 and 11.0 and 31.6 and 44.8 and 10.1 and 92.2
same,Proliferation (SI) (50 μM NiCl2),PBMC; PBMC of non-allergic group,3.1 (2×) and 0.9 and 1.2 and 2.0 and 3.3 and 6.8 and 5.1 and 8.2
same,IL-5 production in response to NiCl2 (ELISpot),IL-5 producing PBMC; [3],shown to produce
same,IL-5 production in response to NiCl2 (ELISpot),IL-5 producing PBMC; [4],this was not seen
same,"IL-4 ELISpot mean values, allergic versus non-allergic group","IL-4 producing PBMC; 10 μM NiCl2, data not shown",higher mean values for the allergic group
same,IL-4 producing cells/200 000 PBMC after stimulation with 50 μM NiCl2,IL-4 producing PBMC; allergic group,137 cells/200 000 PBMC and 48 cells/200 000 PBMC and 19 cells/200 000 PBMC and 26 cells/200 000 PBMC and 127 cells/200 000 PBMC and 27 cells/200 000 PBMC and 60 cells/200 000 PBMC and 9 cells/200 000 PBMC and 8 cells/200 000 PBMC and 13 cells/200 000 PBMC and 23 cells/200 000 PBMC
same,IL-4 producing cells/200 000 PBMC after stimulation with 50 μM NiCl2,IL-4 producing PBMC; non-allergic group,3 cells/200 000 PBMC (2×) and 4 cells/200 000 PBMC (2×) and 9 cells/200 000 PBMC and 7 cells/200 000 PBMC and 1 cells/200 000 PBMC and 2 cells/200 000 PBMC (2×)
same,"IL-4 producing cells/200 000 PBMC, 50-0",IL-4 producing PBMC; allergic group,134 cells/200 000 PBMC and 47 cells/200 000 PBMC and 17 cells/200 000 PBMC and 21 cells/200 000 PBMC (2×) and 118 cells/200 000 PBMC and 25 cells/200 000 PBMC and 55 cells/200 000 PBMC and 5 cells/200 000 PBMC and 7 cells/200 000 PBMC and 12 cells/200 000 PBMC
same,"IL-4 producing cells/200 000 PBMC, 50-0",IL-4 producing PBMC; non-allergic group,1 cells/200 000 PBMC and 2 cells/200 000 PBMC and 4 cells/200 000 PBMC and 0 cells/200 000 PBMC (6×)
same,IL-4 producing cells/200 000 PBMC after stimulation with 100 μM NiCl2,IL-4 producing PBMC; allergic group,21 cells/200 000 PBMC and 28 cells/200 000 PBMC (2×) and 122 cells/200 000 PBMC and 30 cells/200 000 PBMC and 63 cells/200 000 PBMC and 16 cells/200 000 PBMC and 18 cells/200 000 PBMC and 24 cells/200 000 PBMC
same,IL-4 producing cells/200 000 PBMC after stimulation with 100 μM NiCl2,IL-4 producing PBMC; non-allergic group,5 cells/200 000 PBMC and 8 cells/200 000 PBMC (2×) and 4 cells/200 000 PBMC (2×) and 14 cells/200 000 PBMC and 1 cells/200 000 PBMC and 6 cells/200 000 PBMC
same,"IL-4 producing cells/200 000 PBMC, 100-0",IL-4 producing PBMC; allergic group,19 cells/200 000 PBMC and 23 cells/200 000 PBMC (2×) and 113 cells/200 000 PBMC and 28 cells/200 000 PBMC and 58 cells/200 000 PBMC and 12 cells/200 000 PBMC and 17 cells/200 000 PBMC and 25 cells/200 000 PBMC
same,"IL-4 producing cells/200 000 PBMC, 100-0",IL-4 producing PBMC; non-allergic group,3 cells/200 000 PBMC (2×) and 1 cells/200 000 PBMC (2×) and 5 cells/200 000 PBMC and 2 cells/200 000 PBMC and 0 cells/200 000 PBMC and 4 cells/200 000 PBMC
same,IL-13 production in response to NiCl2 (ELISpot),IL-13 producing PBMC; [3],shown to produce
same,IL-13 production in response to NiCl2 (ELISpot),IL-13 producing PBMC; [4],this was not seen
